Data reported in US20230114728A1 (Venatorx Pharmaceuticals, Inc., priority 2019, published 2023).
≈ marks a conversion by molar mass, not a printed value. Read-outs that look alike come from different tables or passages of the source.

Columns and labels:
Test in all cases: Broth microdilution MIC in CAMHB
Assay type in all cases: cell-based
[1] = system: P. aeruginosa (ΔmexAB-oprM); conditions: Pseudomonas aeruginosa, read-out: Minimum Inhibitory Concentration, P. aeruginosa ΔmexAB-OprM
Procedure: (§1) Example III: In Vitro Antibacterial Assays
(§2) To determine the ability of test compounds to inhibit the growth of bacterial strains, classic cell based broth microdilution minimum inhibitory concentration (MIC) assays were employed. MIC assays are performed according to CLSI methods except where otherwise noted (CLSI, 2018 and CLSI, 2019). The reference type strain E. coli ATCC 25922; the wild-type parent strain E. coli AG100; the hyper-permeable E. coli 901C and E. coli D22; and the E. coli AG100A strain lacking the acrAB efflux pump encoding genes were used to determine the ability of the PBP inhibitors to penetrate the outer membrane of gram-negative bacteria and inhibit bacterial growth. […] The P. aeruginosa ATCC 27853 and A. baumannii ATCC 19606, along with the hyper-permeable P. aeruginosa ATCC 35151 and an engineered efflux pump-compromised strain of P. aeruginosa (ΔmexAB-oprM) were used to determine the ability of PBP inhibitors to penetrate the outer membrane of P. aeruginosa and A. baumannii and assess antibacterial activity against these important gram-negative organisms.
(§3) Briefly, cryo-preserved bacterial cultures of challenge strains are streaked for isolation on appropriate agar medium, in this case cation-adjusted Mueller Hinton agar. Following incubation to allow growth of the colonies, plates are sealed with parafilm and stored refrigerated for up to two weeks. For preparation of assay inoculum and to ensure low variability, at least 5 colonies are picked from the agar plates with an inoculating loop and aseptically transferred to a culture tube containing 3 mL of cation-adjusted Mueller Hinton broth (CAMHB). The broth culture is grown for 3-5 hours at 37° C. with shaking at 200 rpm. Meanwhile, 2-fold serial dilutions of test compounds are conducted in a 96-well plate with a final volume of 75 μL per well at 2-fold the final desired concentration. After the dilution plates are set up the growing cultures are then diluted in a cuvette containing CAMHB and the optical density is measured at 600 nm. The inoculum is diluted such that 75 μL of this culture in CAMHB results in a starting bacterial concentration of 2-8×10^5 CFU/mL when added to the dilution plates. The plates are incubated for 16-20 hours for Enterobacteriaceae and Pseudomonas and 20-24 hours for Acinetobacter at 37° C. The MIC values are read visually as the lowest concentration well with no bacterial growth.

[2] = system: A. baumannii ATCC 19606; conditions: Acinetobacter baumannii, ATCC19606; MHB; read-out: Minimum Inhibitory Concentration, A. baumannii ATCC 19606
Procedure: as §1, §2, §3

[3] = system: K. pneumoniae 848844 producing SHV-11 and KPC-2; conditions: Klebsiella pneumoniae, read-out: Minimum Inhibitory Concentration, K. pneumoniae 848844
Procedure: as §1, §2, §3

[4] = system: K. pneumoniae UMM producing SHV-5 and KPC-2; conditions: Klebsiella pneumoniae, read-out: Minimum Inhibitory Concentration, K. pneumoniae UMM
Procedure: as §1, §2, §3

[5] = system: K. pneumoniae SI-117 producing VIM-1; conditions: Klebsiella pneumoniae, read-out: Minimum Inhibitory Concentration, K. pneumoniae SI-117
Procedure: as §1, §2, §3

[6] = system: E. coli 901C; conditions: Escherichia coli, MHB, read-out: Minimum Inhibitory Concentration, E. coli 901C
Procedure: as §1, §2, §3

[7] = system: E. coli ATCC 25922
Procedure: as §1, §2, §3

[8] = system: P. aeruginosa ATCC 27853; conditions: Pseudomonas aeruginosa, ATCC27853; MHB; read-out: Minimum Inhibitory Concentration, P. aeruginosa ATCC 27853
Procedure: as §1, §2, §3

[9] = system: E. coli D22; conditions: Escherichia coli, MHB, read-out: Minimum Inhibitory Concentration, E. coli D22
Procedure: as §1, §2, §3

[10] = system: E. coli AG100A; conditions: Escherichia coli, read-out: Minimum Inhibitory Concentration, E. coli AG100A
Procedure: as §1, §2, §3

[11] = system: P. aeruginosa ATCC 35151; conditions: Pseudomonas aeruginosa, ATCC35151; MHB; hyper-permeable strain; read-out: Minimum Inhibitory Concentration, P. aeruginosa ATCC 35151
Procedure: as §1, §2, §3

[12] = system: E. coli AG100; conditions: Escherichia coli, MHB, read-out: Minimum Inhibitory Concentration, E. coli AG100
Procedure: as §1, §2, §3

[13] = Escherichia coli, ATCC25922; MHB; E. coli ATCC 25922; read-out: Minimum Inhibitory Concentration, E. coli 25922
[14] = wild-type parent strain E. coli AG100

Work on `CCN1CCN(C(=O)NC(C(=O)N[C@H]2Cc3cccc(C(=O)O)c3OB2O)c2ccc(C(=O)O)c([N+](=O)[O-])c2)C(=O)C1=O` (stereo partly drawn) [Example 220, (3R)-3-(2-(4-carboxy-3-nitrophenyl)-2-(4-ethyl-2,3-dioxopiperazine-1-carboxamido)acetamido)-2-hydroxy-3,4-dihydro-2H-benzo[e][1,2]oxaborinine-8-carboxylic acid] yielded an MIC [1] of 8 to 16 µg/mL (≈ 13.4 to 26.8 µM), an MIC [2] of over 128 µg/mL and an MIC [3] of 32 to 64 µg/mL (≈ 53.6 to 107 µM). The MIC [4] was under 0.25 µg/mL, the MIC [5] was 2 to 4 µg/mL (≈ 3.35 to 6.7 µM) and the MIC ([6]; E. coli 901C (hyper-permeable)) was over 128 µg/mL. It also gave an MIC ([7]; Escherichia coli, ATCC25922; E. coli ATCC 25922; MHB; read-out: Minimum Inhibitory Concentration, E. coli 25922) of over 128 µg/mL, an MIC [8] of over 128 µg/mL and an MIC ([9]; E. coli D22 (hyper-permeable)) of 32 to 64 µg/mL (≈ 53.6 to 107 µM). The MIC [10] was 32 to 64 µg/mL (≈ 53.6 to 107 µM), the MIC [11] was 0.5 to 1 µg/mL (≈ 0.837 to 1.67 µM) and the MIC ([12]; E. coli AG100 (wild-type parent)) was over 128 µg/mL.

`Nc1nc(C(=O)NC(C(=O)N[C@H]2Cc3cccc(C(=O)O)c3OB2O)c2c(F)cc(O)cc2F)cs1` (stereo partly drawn) [Example 251, (3R)-3-(2-(2-aminothiazole-4-carboxamido)-2-(2,6-difluoro-4-hydroxyphenyl)acetamido)-2-hydroxy-3,4-dihydro-2H-benzo[e][1,2]oxaborinine-8-carboxylic acid] was tested, and the MIC [1] was 32 to 64 µg/mL (≈ 61.7 to 123 µM), the MIC [2] was over 128 µg/mL and the MIC [3] was over 128 µg/mL. It also gave an MIC [4] of 2 to 4 µg/mL (≈ 3.86 to 7.72 µM), an MIC [5] of 8 to 16 µg/mL (≈ 15.4 to 30.9 µM) and an MIC ([6]; hyper-permeable E. coli 901C) of over 128 µg/mL. The MIC [7, 13] was over 128 µg/mL, the MIC [8] was over 128 µg/mL and the MIC ([9]; hyper-permeable E. coli D22) was over 128 µg/mL. It also gave an MIC [10] of over 128 µg/mL, an MIC [11] of 2 to 4 µg/mL (≈ 3.86 to 7.72 µM) and an MIC [12, 14] of over 128 µg/mL.

`C[C@H]1CN(CCF)C(=O)C(=O)N1C(=O)NC(C(=O)N[C@H]1Cc2cccc(C(=O)O)c2OB1O)c1cc(F)c(O)c(F)c1F` (stereo partly drawn) [Example 248] gave an MIC [1] of 8 to 16 µg/mL (≈ 13.1 to 26.2 µM), an MIC [2] of over 128 µg/mL and an MIC [3] of 32 to 64 µg/mL (≈ 52.4 to 105 µM). It also gave an MIC [4] of under 0.25 µg/mL, an MIC [5] of 0.5 to 1 µg/mL (≈ 0.819 to 1.64 µM) and an MIC ([6]; hyper-permeable E. coli 901C) of over 128 µg/mL. The MIC [7, 13] was 8 to 16 µg/mL (≈ 13.1 to 26.2 µM), the MIC [8] was over 128 µg/mL and the MIC ([9]; hyper-permeable E. coli D22) was 8 to 16 µg/mL (≈ 13.1 to 26.2 µM). The MIC [10] was 32 to 64 µg/mL (≈ 52.4 to 105 µM), the MIC [11] was 2 to 4 µg/mL (≈ 3.28 to 6.55 µM) and the MIC [12, 14] was 32 to 64 µg/mL (≈ 52.4 to 105 µM).

For `O=C(O)c1cccc2c1OB(O)[C@@H](NC(=O)C(NC(=O)N1CCN(CCBr)C(=O)C1=O)c1ccc(O)c(F)c1F)C2` (stereo partly drawn) [Example 249, (3R)-3-(2-(4-(2-bromoethyl)-2,3-dioxopiperazine-1-carboxamido)-2-(2,3-difluoro-4-hydroxyphenyl)acetamido)-2-hydroxy-3,4-dihydro-2H-benzo[e][1,2]oxaborinine-8-carboxylic acid], the MIC [1] was 8 to 16 µg/mL (≈ 12.5 to 25 µM), the MIC [2] was over 128 µg/mL and the MIC [3] was 32 to 64 µg/mL (≈ 50.1 to 100 µM). It also gave an MIC [4] of under 0.25 µg/mL, an MIC [5] of 2 to 4 µg/mL (≈ 3.13 to 6.26 µM) and an MIC ([6]; hyper-permeable E. coli 901C) of over 128 µg/mL. For the same compound, the MIC [7, 13] was 32 to 64 µg/mL (≈ 50.1 to 100 µM), the MIC [8] was over 128 µg/mL and the MIC ([9]; hyper-permeable E. coli D22) was 32 to 64 µg/mL (≈ 50.1 to 100 µM). For the same compound, the MIC [10] was 32 to 64 µg/mL (≈ 50.1 to 100 µM), the MIC [11] was 0.5 to 1 µg/mL (≈ 0.782 to 1.56 µM) and the MIC [12, 14] was over 128 µg/mL.
